According to publication PMC8074792, “An ω-3, but Not an ω-6 Polyunsaturated Fatty Acid Decreases Membrane Dipole Potential and Stimulates Endo-Lysosomal Escape of Penetratin” (Frontiers in Cell and Developmental Biology, 2021):

Legend:
Type in all cases: cell-based, human
THP-1 cells [1] = assay: Membrane hydration, PY3174 generalized polarization, confocal microscopy; conditions: 200 μM sterol 1 h or 50 μM fatty acid 48 h, efficacy order 6KC > cholesterol ≥ 7DHC, all statistically significant
Method: (§1) For these measurements, cells were labeled with 10 μM PY3174 for 20 min at room temperature. […] During processing, segmentation of images into membrane and non-membrane pixels was carried out with the manually seeded watershed algorithm using a custom-written MATLAB program as described previously ([Kovacs et al., 2017]). The average value of general polarization correlating with the degree of membrane compactness ([[…] et al., 2013]) was calculated from the data of cell membrane pixels after background subtraction using […]

JY cells [2] = assay: as above; conditions: 200 μM sterol 1 h or 50 μM fatty acid 48 h, efficacy order 6KC > cholesterol ≥ 7DHC, effects of 7DHC and SA not statistically significant
Method: as §1

THP-1 cells [3] = assay: Membrane dipole potential, F66 emission ratio, flow cytometry; conditions: n = 5
Method: (§2) The human acute monocytic leukemia-derived cell line THP-1 and the human Epstein-Barr virus (EBV) transformed lymphoblastoid cell line JY were obtained from the American Type Culture Collection (Manassas, VA, United States) and cultivated according to their specifications. […] As controls, cells were treated with the corresponding amounts of native MβCD complexes not containing sterols. To study the effects of fatty acids, cells were incubated for 48 h in medium supplemented with saturated stearic acid (SA, Sigma Aldrich), ω-3 polyunsaturated α-linolenic acid (ALA, Sigma Aldrich) or ω-6 polyunsaturated γ-linolenic acid (GLA, Sigma Aldrich) at various concentrations ranging from 12.5 to 50 μM. […] After washing, the fluorescence intensities of cells were determined with a FACS Aria III flow cytometer (Becton Dickinson, Mountain View, CA, United States) at 37°C. […] Data analysis was carried out in FCS Express (De Novo Software, Los Angeles, CA, United States). The ratio of emitted intensities in the two wavelength ranges (N^∗/T^∗) was determined for each cell and the average value was calculated for each sample from the data of living cells gated on FSC-SSC dot plots. The value of N^∗/T^∗ ratio negatively correlates with the magnitude of DP ([Kovacs et al., 2017]).

JY cells [4] = assay: as above; conditions: n = 5
Method: as §2

THP-1 cells [5] = assay: Membrane fluidity, TMA-DPH fluorescence anisotropy; conditions: 200 μM sterol 1 h or 50 μM fatty acid 48 h, 37°C, n = 6, vs control
Method: (§3) 4′-(trimethylammonio)-diphenylhexatriene (TMA-DPH) was purchased from Sigma-Aldrich, dissolved in tetrahydrofuran and used for determination of membrane fluidity as described previously ([Batta et al., 2018]). […] Fluorescence intensities were measured without washing using a Fluorolog-3 spectrofluorometer (Horiba Jobin Yvon, Edison, NJ, United States) with the temperature of the cuvette holder adjusted to 37°C by a circulating water bath. The fluorescence anisotropy (r) of TMA-DPH was determined in the L-format after excitation at 352 nm and measurement of fluorescence intensities at 430 nm according to the formula: […]

JY cells [6] = assay: Membrane fluidity, TMA-DPH fluorescence anisotropy; conditions: 200 μM sterol 1 h or 50 μM fatty acid 48 h, 37°C, n = 6, vs control
Method: as §3

THP-1 cells [7] = assay: Membrane dipole potential, di-8-ANEPPS excitation ratio, spectrofluorometry
Method: (§4) The human acute monocytic leukemia-derived cell line THP-1 and the human Epstein-Barr virus (EBV) transformed lymphoblastoid cell line JY were obtained from the American Type Culture Collection (Manassas, VA, United States) and cultivated according to their specifications. […] As controls, cells were treated with the corresponding amounts of native MβCD complexes not containing sterols. To study the effects of fatty acids, cells were incubated for 48 h in medium supplemented with saturated stearic acid (SA, Sigma Aldrich), ω-3 polyunsaturated α-linolenic acid (ALA, Sigma Aldrich) or ω-6 polyunsaturated γ-linolenic acid (GLA, Sigma Aldrich) at various concentrations ranging from 12.5 to 50 μM. […] After washing, cells were kept on ice and samples were subsequently warmed to 37°C right before measurements carried out with a Fluorolog-3 spectrofluorometer (Horiba Jobin Yvon, Edison, NJ, United States). During measurements, the cuvette holder was kept at 37°C using a circulating water bath. Excitation spectra were recorded between 380 and 550 nm with the detected emission wavelength set to 660 nm in order to minimize effects of possible changes in membrane fluidity ([Clarke and Kane, 1997]). The ratio of fluorescence intensities integrated between excitation wavelengths 410–440 nm and 490–520 nm was calculated for each sample, which positively correlates with the magnitude of DP ([Clarke and Kane, 1997]; [Kovacs et al., 2017]; [Batta et al., 2020]).

JY cells [8] = assay: as above
Method: as §4

THP-1 cells [9] = assay: Penetratin uptake and endo-lysosomal escape, time-correlated flow cytometry; conditions: 37°C
Description: (§5) Penetratin ([…]-amide, molecular weight 2245.75 g/mol) was synthesized manually on TentaGel R RAM (Rapp Polymere, Tübingen, Germany), a low crosslinked polystyrene PEG copolymer resin by the solid-phase method of Merrifield with standard Fmoc chemistry, as described in detail in our recent study ([Batta et al., 2020]). After coupling the last arginine, one half of the penetratin was reacted with AFDye532 N-hydroxysuccinimide ester (molecular weight 723.77 g/mol, Fluoroprobes, Scottsdale, AZ, United States), while the other half with 5(6)-carboxynaphthofluorescein N-succinimidyl ester (molecular weight 573.51 g/mol, Darmstadt, Germany). Completion of the coupling was assessed by Kaiser test, which was followed by deprotection and release from the resin. After filtration and precipitation with cold diethyl ether, the crude products were purified by preparative reversed-phase HPLC (JASCO, Victoria, BC, Canada) on a C18 column and lyophilized. The purity of the products (>95%) was assessed by reversed-phase HPLC (JASCO) equipped with an analytical C18 column. […] These values well correlated with the predicted masses of the labeled peptides (2983.59 and 2833.33, respectively).
(§6) Total cellular penetratin uptake and endo-lysosomal escape was determined as described previously ([Batta et al., 2020]). Briefly, control THP-1 or JY cells and those treated with 50 μM ALA, GLA or SA for 48 h at 37°C were incubated in the continuous presence of 5 μM AFDye532-penetratin, 5 μM NF-penetratin and 0.25 μg/ml DAPI at 37°C in the thermostated sample holder of a FACS Aria III flow cytometer. The fluorescence intensity of DAPI was measured using an excitation at 405 nm and an emission filter 450/20 nm. AFDye532 and NF were excited at 488 and 561 nm, respectively, and their fluorescence was determined using emission filters 530/30 and 670/14 nm, respectively. Measurements started immediately after addition of DAPI and penetratin and continued for 20 min at 37°C. Experimental data were analyzed first in FCS Express. Time-correlated fluorescence intensity values of DAPI-negative living cells were exported after spectral compensation and the moving averages of samples were calculated with a window size of 10 s. […] During analysis, fluorescence intensity values were first normalized to the average intensity in the first time window, which was followed by calculation of the fluorescence ratio from the normalized values.

JY cells [10] = assay: as above; conditions: 37°C
Description: as §5, §6

[11] = agent 20-200 μM, 10 min, 0.05% Pluronic F-127, at least 20,000 living cells per sample
[12] = agent 20-200 μM, 10 min, room temperature, 0.05% Pluronic F-127, measured at 37°C, mean of 5 experiments
[13] = sterol-MβCD complex, 60 min, room temperature, at the maximal applied concentration of 200 μM, n = 5, statistically significant
[14] = 50 μM fatty acid 48 h, 5 μM AFDye532- and 5 μM NF-penetratin, compared at 900 s, n = 5
[15] = 50 μM fatty acid 48 h, then 50 or 200 μM cholesterol 1 h
[16] = fatty acid 12.5-50 μM for 48 h, result at maximal 50 μM, n = 5
[17] = 5 μM AFDye532-penetratin + 5 μM NF-penetratin, flow cytometry, living cells
[18] = 5 μM AFDye532-penetratin + 5 μM NF-penetratin, continuous presence, flow cytometry, DAPI-negative living cells
[19] = 5 μM of each labeled penetratin, decline followed by a continuous gradual increase

Compound | PY3174 generalized polarization in the cell membrane (inversely correlates with membrane hydration) (THP-1 cells [1]) | PY3174 generalized polarization in the cell membrane (inversely correlates with membrane hydration) (JY cells [2]) | TMA-DPH fluorescence anisotropy (inversely correlates with membrane fluidity) (THP-1 cells [5]) | TMA-DPH fluorescence anisotropy (inversely correlates with membrane fluidity) (JY cells [6]) | Rexc, di-8-ANEPPS (THP-1 cells [7]; [13]) | Rexc, di-8-ANEPPS (JY cells [8]; [13]) | also measured
CC(C)CCC[C@@H](C)[C@H]1CC[C@H]2[C@@H]3CC(=O)[C@H]4C[C@@H](O)CC[C@]4(C)[C@H]3CC[C@]12C [6KC, 3β-hydroxy-5α-cholestan-6-one] | shifted toward the positive direction | shifted toward the positive direction | did not reach statistical significance | did not reach statistical significance | robustly elevated | robustly elevated | Rem, F66 (emission ratio N*/T*, 470-490 nm / 564-606 nm, negatively correlates with DP) (THP-1 cells [3]; [11]): dose-dependent decreases; Rem, F66 (emission ratio N*/T*, 470-490 nm / 564-606 nm, negatively correlates with DP) (JY cells [4]; [11]): dose-dependent decreases; Rexc, di-8-ANEPPS (excitation ratio 410-440 nm / 490-520 nm, positively correlates with DP) (THP-1 cells [7]; [12]): dose-dependently increased; Rexc, di-8-ANEPPS (excitation ratio 410-440 nm / 490-520 nm, positively correlates with DP) (JY cells [8]; [12]): dose-dependently increased
CC(C)CCC[C@@H](C)[C@H]1CC[C@H]2C3=CC=C4C[C@@H](O)CC[C@]4(C)[C@H]3CC[C@]12C [7DHC, 7-dehydrocholesterol] | shifted toward the positive direction | shifted toward the positive direction | significantly elevated | significantly elevated | slightly raised | slightly raised | –
CCCCCCCCCCCCCCCCCC(=O)O [SA, stearic acid] | increased the generalized polarization, albeit to a miniscule extent | increased the generalized polarization, albeit to a miniscule extent | did not reach statistical significance | did not reach statistical significance | – | – | ratio of NF and AFDye532 intensities (endo-lysosomal escape of penetratin) vs controls (THP-1 cells [9]; [14]): no significant changes; ratio of NF and AFDye532 intensities (endo-lysosomal escape of penetratin) vs controls (JY cells [10]; [14]): no significant changes; effect of fatty acid pretreatment on cholesterol-induced DP elevation (Rem, F66) (THP-1 cells [3]; [15]): a tendency to augment the cholesterol-induced DP changes; Rem, F66 (THP-1 cells [3]; fatty acid 12.5-50 μM for 48 h): opposite changes were observed in response to SA or GLA with the former not reaching the level of significance; effect of fatty acid pretreatment on cholesterol-induced DP elevation (Rem, F66) (JY cells [4]; [15]): a tendency to augment the cholesterol-induced DP changes; Rexc, di-8-ANEPPS (THP-1 cells [7]; [16]): slightly higher; Rexc, di-8-ANEPPS (JY cells [8]; [16]): slightly higher
CC(C)CCC[C@@H](C)[C@H]1CC[C@H]2[C@@H]3CC=C4C[C@@H](O)CC[C@]4(C)[C@H]3CC[C@]12C [cholesterol] | shifted toward the positive direction | shifted toward the positive direction | significantly elevated | significantly elevated | moderately increased | moderately increased | –
RQIKIWFQNRRMKWKK-amide [penetratin] | – | – | – | – | – | – | duration of fast increase of NF signal (endo-lysosomal escape of penetratin), followed by slower continuous rise (THP-1 cells [9]; [17]): 180 to 240 s; time of saturation of AFDye532 signal (total cellular penetratin concentration) (THP-1 cells [9]; [18]): 120 to 180 s; time course of ratio of NF and AFDye532 (fraction of penetratin in the cytosol) (THP-1 cells [9]; [19]): initially declined; duration of fast increase of NF signal (endo-lysosomal escape of penetratin), followed by slower continuous rise (JY cells [10]; [17]): 180 to 240 s; time of saturation of AFDye532 signal (total cellular penetratin concentration) (JY cells [10]; [18]): 120 to 180 s; time course of ratio of NF and AFDye532 (fraction of penetratin in the cytosol) (JY cells [10]; [19]): initially declined
